Measured values from patent US20200347043A1, “MODULATORS OF THE INTEGRATED STRESS PATHWAY” (Calico Life Sciences LLC, priority 2019, published 2020).

System: HEK293T cells carrying the ATF4 luciferase reporter
Experiment: ATF4-Luc assay (in vitro model of VWMD)
Assay type: cell-based, human
Details: Homo sapiens, HEK-293T, 1 μg/mL tunicamycin, 7 hours, One Glo luminescence
In short: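 Stable HEK293T line expressing firefly luciferase behind the human ATF4 5′-UTR, treated with 1 μg/mL tunicamycin plus compound for 7 hours. Luminescence read with One Glo; EC50 determined.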

| Compound | EC50 |
| --- | --- |
| O=C(CO[C@H]1C[C@@H](OC(F)(F)F)C1)NC12CCC(NC(=O)[C@H]3C[C@@H](O)c4cc(Cl)ccc4O3)(CC1)C[C@@H]2O [Compound 117, (2R,4R)-6-chloro-4-hydroxy-N-[(3S)-3-hydroxy-4-(2-{[(1s,3R)-3-(trifluoromethoxy)cyclobutyl]oxy}acetamido)bicyclo[2.2.2]octan-1-yl]-3,4-dihydro-2H-1-benzopyran-2-carboxamide] | < 10 nM |
| O=C(COc1ccc(Cl)c(F)c1)NC12CC(c3nnc([C@@H]4C[C@H](O)c5cc(Cl)ccc5O4)o3)(C1)C2 (relative stereo) [Compound 253, 2-(4-chloro-3-fluorophenoxy)-N-(3-{5-[(2S*,4S*)-6-chloro-4-hydroxy-3,4-dihydro-2H-1-benzopyran-2-yl]-1,3,4-oxadiazol-2-yl}bicyclo[1.1.1]pentan-1-yl)acetamide] | 10 to 50 nM |
| O=C(N[C@@H]1CC[C@@H](C(=O)N2CC(Oc3ccc(Cl)cc3)C2)OC1)[C@H]1C[C@@H](O)c2cc(Cl)ccc2O1 (racemic) [Compound 122, (2R,4R)-6-chloro-N-(3R,6S)-6-[3-(4-chlorophenoxy)azetidine-1-carbonyl]oxan-3-yl)-4-hydroxy-3,4-dihydro-2H-1-benzopyran-2-carboxamide and (2S,4S)-6-chloro-N-{(3R,6S)-6-[3-(4-chlorophenoxy)azetidine-1-carbonyl]oxan-3-yl}-4-hydroxy-3,4-dihydro-2H-1-benzopyran-2-carboxamide] | 10 to 50 nM |
| O=C(NC12CC(c3ncc([C@H]4C[C@@H](OC(F)(F)F)C4)o3)(C1)C2)[C@H]1C[C@@H](O)c2cc(Cl)ccc2O1 [Compound 288, (2R,4R)-6-chloro-4-hydroxy-N-(3-{5-[cis-3-(trifluoromethoxy)cyclobutyl]-1,3-oxazol-2-yl}bicyclo[1.1.1]pentan-1-yl)-3,4-dihydro-2H-1-benzopyran-2-carboxamide] | 10 to 50 nM |
| O=C(NC12CC(c3cc(-c4ccc(Cl)cc4)on3)(C1)C2)[C@H]1C[C@@H](O)c2cc(Cl)ccc2O1 [Compound 256, (2R,4R)-6-chloro-N-{3-[5-(4-chlorophenyl)-1,2-oxazol-3-yl]bicyclo[1.1.1]pentan-1-yl}-4-hydroxy-3,4-dihydro-2H-1-benzopyran-2-carboxamide] | < 10 nM |
| O=C(CO[C@H]1C[C@@H](OC(F)(F)F)C1)NC12CCC(NC(=O)[C@H]3C[C@@H](O)c4cc(Cl)ccc4O3)(CC1)CC2 [Compound 195, (2R,4R)-6-chloro-4-hydroxy-N-[4-(2-{[cis-3-(trifluoromethoxy)cyclobutyl]oxy}acetamido)bicyclo[2.2.2]octan-1-yl]-3,4-dihydro-2H-1-benzopyran-2-carboxamide] | < 10 nM |
| O=C(NCc1ccc(C(F)(F)F)cc1)[C@@H]1CC[C@@H](NC(=O)[C@H]2C[C@@H](O)c3cc(Cl)ccc3O2)CO1 (racemic) [Compound 121, (2R,4R)-6-chloro-4-hydroxy-N-[(3R,6S)-6-({[4-(trifluoromethyl)phenyl]methyl}carbamoyl)oxan-3-yl]-3,4-dihydro-2H-1-benzopyran-2-carboxamide and (2S,4S)-6-chloro-4-hydroxy-N-[(3R,6S)-6-({[4-(trifluoromethyl)phenyl]methyl}carbamoyl)oxan-3-yl]-3,4-dihydro-2H-1-benzopyran-2-carboxamide] | 10 to 50 nM |
| O=C(NC12CC(C3=NOC([C@H]4C[C@@H](OC(F)(F)F)C4)C3)(C1)C2)[C@@H]1C[C@@H](O)c2cc(Cl)ccc2O1 (stereo partly drawn) [Compound 233, (2S,4R)-6-chloro-4-hydroxy-N-(3-{5-[cis-3-(trifluoromethoxy)cyclobutyl]-4,5-dihydro-1,2-oxazol-3-yl}bicyclo[1.1.1]pentan-1-yl)-3,4-dihydro-2H-1-benzopyran-2-carboxamide] | 500 to 2000 nM |
